PubChem BioAssay AID1918953 (Molecular Pharmacology Branch, DTP, NCI, 2023)
Values joined by “and” are separate entries in the source; they are usually repeats but may differ in a detail not shown here. Identical values can stand only once.

Test system: MDA-MB-231 complex spheroid viability
Assay: Anticancer human tumor MDA-MB-231/ATCC cell line growth inhibition;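 note: drug exposure lasted 7 days starting on day 3 of spheroid growth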
Settings: for viability, T/C: stronger effect = lower value
Text: Multicellular complex tumor spheroid response to LSD1 Inhibitor Iadademstat in combination with a variety of drugs and investigational agents in selected tumor cell lines
The current study was undertaken to assess response to LSD1 inhibitors in combination with standard-of-care drugs and investigational agents in solid tumor complex spheroid models as well as in the K-562 leukemia. Complex spheroids include a stromal component modeled by human endothelial cells (HUVEC) and fibroblasts modeled by human mesenchymal stem cells (MSCs). The concentration ranges selected for each drug and investigational agent were based upon clinically achievable concentrations if the clinical Cmax of the agent was known.
Compounds. The drugs and investigational agents used in this study are listed on Table 1. All of the agents used, including staurosporine (NSC755774) and gemcitabine (NSC613327), were obtained from the Developmental Therapeutics Program, NCI. FDA-approved anticancer drugs are available from the NCI at http://dtp.nci.nih.gov/branches/dscb/oncology_drugset_explanation.html. Drugs and investigational agents were >95% pure by proton nuclear magnetic resonance (NMR) and liquid chromatography/mass spectrometry (LC/MS). Stock solutions were prepared at 400x in DMSO, stored at -70 degrees C, and diluted in fresh medium prior to their use. The final concentration of DMSO in cell culture wells never exceeded 0.25% (v/v). The FDA-approved anticancer drug set is available from the Developmental Therapeutics Program at https://dtp.cancer.gov/organization/dscb/obtaining/available_plates.htm. All drugs and investigational agents were tested over a range starting from a high concentration at or near the clinical Cmax and decreasing in half-log increments. If the clinical Cmax for an agent had not been determined, the highest concentration tested was 10 microM.
Cell Lines. The patient-derived cancer cell (PDC) lines: 292921-168-R-J2-PDC, K24384-001-R-PDC, and 521955-158-R2-J5-PDC pancreatic carcinomas, 556581-035-R-J1 ovarian carcinoma, 324938-238-R-J1-PDC, 855422-203-R-J1-PDC and 883617-216-R-J1-PDC urothelial bladder carcinomas, 743489-274-T-PDC renal cell carcinoma, 138582-R-J1 Merkel cell tumor, K60290-347-R-J1 and K57222-313-R-J1-PDC glioblastomas, 653999-131-R-J2-PDC, LG0703-F948-PDC, and 349418-098-R-PDC non-small cell lung carcinomas, 885512-296-R-J2-PDC, 171881-019-R-J1-PDC breast carcinomas and 186277-243-T-J2-PDC and 233499-124-R-J2-PDC colon carcinomas were obtained from the NCI Patient-Derived Models Repository (PDMR, https://pdmr.cancer.gov). The established cell lines NCI/ADR-RES (RRID:CVCL_14520 and OVCAR-5 (RRID:CVCL_1628) ovarian carcinomas, 786-O (RRID:CVCL_1051) and A498 (RRID:CVCL_A498) renal cell carcinoma, NCI-H211 (ATCC, cat. CRL-5824; RRID:CVCL_1529), NCI-H196 (ATCC, cat. CRL-5823, RRID:CVCL_1509), SW 1271 (ATCC, cat. CRL-2177, RRID:CVCL_1716) and NCI-H1876 (ATCC, cat. CRL-5902, RRID:CVCL_1503) small cell lung carcinomas, MDA-MB-231 (RRID:CVCL_0062) and MDA-MB-468 (RRID:CVCL_0419)breast carcinomas (10-12). Pooled donor human umbilical vein endothelial cells (HUVEC, Lonza, cat. CC-2519) and human mesenchymal stem cells (hMSC, Lonza, cat. PT-2501) were purchased from Lonza (Walkersville, MD).
Cell Culture. All cells were maintained in an incubator at 37 degrees C and 5% CO2 with 95% humidity. The PDC lines were cultured according to standard operating procedures established by the NCI PDMR (https://pdmr.cancer.gov). Briefly all PDCs were thawed and cultured in Matrigel-coated flasks prepared with a working solution of 1X Ham's F-12 nutrient mix, without supplementation (Invitrogen, Waltham, MA, cat. 11765054), 100 U/mL penicillin-streptomycin (Invitrogen, cat. 15140122), and 2.5% Matrigel (Corning Inc., Corning, NY, cat. 354248) for the first three passages. […]

[1] = curve of first compound, second compound 0.1 µM
[2] = curve of first compound, second compound 0.316 µM
[3] = curve of first compound, second compound 1 µM
[4] = curve of first compound, second compound 3.16 µM
[5] = curve of first compound, second compound 10 µM
[6] = second compound 0.1 µM, first compound 0.00949 µM
[7] = second compound 0.1 µM, first compound 0.03 µM
[8] = second compound 0.1 µM, first compound 0.0949 µM
[9] = second compound 0.1 µM, first compound 0.3 µM
[10] = second compound 0.316 µM, first compound 0.00949 µM
[11] = second compound 0.316 µM, first compound 0.03 µM
[12] = second compound 0.316 µM, first compound 0.0949 µM
[13] = second compound 0.316 µM, first compound 0.3 µM
[14] = second compound 1 µM, first compound 0.00949 µM
[15] = second compound 1 µM, first compound 0.03 µM
[16] = second compound 1 µM, first compound 0.0949 µM
[17] = second compound 1 µM, first compound 0.3 µM
[18] = second compound 3.16 µM, first compound 0.00949 µM
[19] = second compound 3.16 µM, first compound 0.03 µM
[20] = second compound 3.16 µM, first compound 0.0949 µM
[21] = second compound 3.16 µM, first compound 0.3 µM
[22] = second compound 10 µM, first compound 0.00949 µM
[23] = second compound 10 µM, first compound 0.03 µM
[24] = second compound 10 µM, first compound 0.0949 µM
[25] = second compound 10 µM, first compound 0.3 µM

SMILES: CC1COCCN1c1cc(C2(S(C)(=N)=O)CC2)nc(-c2ccnc3[nH]ccc23)n1 (configuration not stated)
- viability, T/C (compound 0.0316 µM): 105% and 111%
- viability, T/C (compound 0.1 µM): 98.6% and 111%
- viability, T/C (compound 0.316 µM): 79.9% and 109%
- viability, T/C (compound 1 µM): 53.7% and 62%
- viability, T/C (compound 3.16 µM): 36.3% and 31.3%
- viability, T/C (compound 10 µM): 28.1% and 24%
- IC50 (curve of compound): 1280 nM and 1530 nM

SMILES: COc1cc(Nc2ncc3c(n2)-c2ccc(Cl)cc2C(c2c(F)cccc2OC)=NC3)ccc1C(=O)O + NC1CCC(NC2CC2c2ccccc2)CC1
- IC50 [1]: 252 nM
- IC50 [2]: 179 nM
- IC50 [3]: 296 nM
- IC50 [4]: 90.1 nM
- IC50 [5]: < 3.16 nM
- viability, T/C (second compound 0.1 µM, first compound 0.00316 µM): 85%
- viability, T/C (second compound 0.1 µM, first compound 0.01 µM): 66.4%
- viability, T/C (second compound 0.1 µM, first compound 0.0316 µM): 56%
- viability, T/C (second compound 0.1 µM, first compound 0.1 µM): 58.7%
- viability, T/C (second compound 0.1 µM, first compound 0.316 µM): 50%
- viability, T/C (second compound 0.1 µM, first compound 1 µM): 44.3%
- viability, T/C (second compound 0.316 µM, first compound 0.00316 µM): 83.1%
- viability, T/C (second compound 0.316 µM, first compound 0.01 µM): 65.5%
- viability, T/C (second compound 0.316 µM, first compound 0.0316 µM): 56.2%
- viability, T/C (second compound 0.316 µM, first compound 0.1 µM): 54.9%
- viability, T/C (second compound 0.316 µM, first compound 0.316 µM): 50.8%
- viability, T/C (second compound 0.316 µM, first compound 1 µM): 42.7%
- viability, T/C (second compound 1 µM, first compound 0.00316 µM): 80.4%
- viability, T/C (second compound 1 µM, first compound 0.01 µM): 64.6%
- viability, T/C (second compound 1 µM, first compound 0.0316 µM): 55.6%
- viability, T/C (second compound 1 µM, first compound 0.1 µM): 56.2%
- viability, T/C (second compound 1 µM, first compound 0.316 µM): 51.5%
- viability, T/C (second compound 1 µM, first compound 1 µM): 45.6%
- viability, T/C (second compound 3.16 µM, first compound 0.00316 µM): 68.4%
- viability, T/C (second compound 3.16 µM, first compound 0.01 µM): 54%
- viability, T/C (second compound 3.16 µM, first compound 0.0316 µM): 51.2%
- viability, T/C (second compound 3.16 µM, first compound 0.1 µM): 54.5%
- viability, T/C (second compound 3.16 µM, first compound 0.316 µM): 48.5%
- viability, T/C (second compound 3.16 µM, first compound 1 µM): 38.2%
- viability, T/C (second compound 10 µM, first compound 0.00316 µM): 49.4%
- viability, T/C (second compound 10 µM, first compound 0.01 µM): 42.4%
- viability, T/C (second compound 10 µM, first compound 0.0316 µM): 40.7%
- viability, T/C (second compound 10 µM, first compound 0.1 µM): 38.6%
- viability, T/C (second compound 10 µM, first compound 0.316 µM): 41.8%
- viability, T/C (second compound 10 µM, first compound 1 µM): 37.2%

SMILES: CCc1c2c(nc3ccc(O)cc13)-c1cc3c(c(=O)n1C2)COC(=O)[C@]3(O)CC + NC1CCC(NC2CC2c2ccccc2)CC1
- IC50 [1]: < 0.949 nM
- IC50 [2]: < 0.949 nM
- IC50 [3]: < 0.949 nM
- IC50 [4]: < 0.949 nM
- IC50 [5]: < 0.949 nM
- viability, T/C (second compound 0.1 µM, first compound 0.000949 µM): 17.1%
- viability, T/C (second compound 0.1 µM, first compound 0.003 µM): 12.7%
- viability, T/C [6]: 12%
- viability, T/C [7]: 14%
- viability, T/C [8]: 5.37%
- viability, T/C [9]: 2.95%
- viability, T/C (second compound 0.316 µM, first compound 0.000949 µM): 17.7%
- viability, T/C (second compound 0.316 µM, first compound 0.003 µM): 13.5%
- viability, T/C [10]: 12%
- viability, T/C [11]: 16%
- viability, T/C [12]: 5.44%
- viability, T/C [13]: 2.86%
- viability, T/C (second compound 1 µM, first compound 0.000949 µM): 19.1%
- viability, T/C (second compound 1 µM, first compound 0.003 µM): 14.6%
- viability, T/C [14]: 13.7%
- viability, T/C [15]: 15.5%
- viability, T/C [16]: 4.76%
- viability, T/C [17]: 2.64%
- viability, T/C (second compound 3.16 µM, first compound 0.000949 µM): 17%
- viability, T/C (second compound 3.16 µM, first compound 0.003 µM): 15.3%
- viability, T/C [18]: 16.5%
- viability, T/C [19]: 13.6%
- viability, T/C [20]: 4.18%
- viability, T/C [21]: 1.91%
- viability, T/C (second compound 10 µM, first compound 0.000949 µM): 13.9%
- viability, T/C (second compound 10 µM, first compound 0.003 µM): 14%
- viability, T/C [22]: 20.1%
- viability, T/C [23]: 13.4%
- viability, T/C [24]: 3.42%
- viability, T/C [25]: 1.8%

SMILES: Nc1ccccc1NC(=O)c1ccc(CNC(=O)OCc2cccnc2)cc1 + NC1CC1c1ccc(-c2cccc(O)c2)cc1
- IC50 [1]: 13.3 nM
- IC50 [2]: 10.5 nM
- IC50 [3]: < 9.49 nM
- IC50 [4]: < 9.49 nM
- IC50 [5]: < 9.49 nM
- viability, T/C [6]: 56.6%
- viability, T/C [7]: 34.9%
- viability, T/C [8]: 22.7%
- viability, T/C [9]: 12.2%
- viability, T/C (second compound 0.1 µM, first compound 0.949 µM): 2.07%
- viability, T/C (second compound 0.1 µM, first compound 3 µM): 0.17%
- viability, T/C [10]: 52.7%
- viability, T/C [11]: 31.5%
- viability, T/C [12]: 21%
- viability, T/C [13]: 10.6%
- viability, T/C (second compound 0.316 µM, first compound 0.949 µM): 1.85%
- viability, T/C (second compound 0.316 µM, first compound 3 µM): 0.16%
- viability, T/C [14]: 43.3%
- viability, T/C [15]: 27%
- viability, T/C [16]: 21.7%
- viability, T/C [17]: 9.99%
- viability, T/C (second compound 1 µM, first compound 0.949 µM): 1.67%
- viability, T/C (second compound 1 µM, first compound 3 µM): 0.15%
- viability, T/C [18]: 46.3%
- viability, T/C [19]: 31.6%
- viability, T/C [20]: 21.3%
- viability, T/C [21]: 13.3%
- viability, T/C (second compound 3.16 µM, first compound 0.949 µM): 1.34%
- viability, T/C (second compound 3.16 µM, first compound 3 µM): 0.13%
- viability, T/C [22]: 36.3%
- viability, T/C [23]: 22.1%
- viability, T/C [24]: 12%
- viability, T/C [25]: 7.05%
- viability, T/C (second compound 10 µM, first compound 0.949 µM): 0.48%
- viability, T/C (second compound 10 µM, first compound 3 µM): 0.24%
